Measured values from patent US20100249071A1, “Modulators of S1P and Methods of Making And Using” (Exelixis, Inc., priority 2009, published 2010).
Where two headings read alike, the source gives them in different places.

Assays:
[1] = target: T1, hS1PR5 (hEdg8) membrane protein (Homo sapiens, UniProt Q9H228); assay: hS1P5R GTPγS binding assay (Assay 4); assay type: biochemical
T1 construct: expressed in transfected cells; host or cells: CHO
Summary of the method: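 Membranes (5 μg) from CHO cells expressing hS1PR5, incubated 1 h at room temperature with 30 μM GDP, 0.1 nM [35S]GTPγS, 0.25% fatty acid free BSA and serially diluted compound in pH 7.9 Tris buffer with MgCl2. WGA SPA beads added for another 1 h, then bound [35S]GTPγS counted by scintillation.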

S1P3 = target: T2, S1P3 (Homo sapiens, UniProt Q99500); assay: S1P3 Tango β-arrestin recruitment assay in HEK293 cells (Assay 5); assay type: cell-based
T2 construct: host or cells: HEK293 (transient transfection)
Summary of the method: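 HEK293 cells transiently expressing S1P3 fused via TEV-cleavable linker to tTA, with β-arrestin2–TEV, treated 16-18 h at 37 °C with compounds (top 10 μM, 10-point 3-fold, 1% DMSO). Luciferase reporter luminescence normalised to DMSO background and 5 μM S1P control as percent activity; EC50 from concentration-response curves.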

[2] = target: T3, hS1P1R (hEdg1) membrane protein (Homo sapiens, UniProt P21453); assay: hS1P1R GTPγS binding assay (Assay 3a); assay type: biochemical
T3 construct: purchased Lonza
Summary of the method: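 Membranes (4 μg) expressing hS1P1R incubated 1 h at room temperature with 30 μM GDP, 0.1 nM [^35S]GTPγS, 0.25% fatty acid free BSA and serially diluted agonist in Tris-HCl pH 7.9/NaCl/MgCl2/EGTA buffer. Bound [^35S]GTPγS captured on WGA SPA beads (further 1 h) and counted.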

S1P1 = target: T4, S1P1 (Homo sapiens, UniProt P21453); assay: Tango β-arrestin recruitment assay in U2OS cells (Assay 2b); assay type: cell-based; conditions: read-out: Assay 2b EC50
T4 construct: host or cells: U2OS
Summary of the method: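 In this agonist-mode Tango assay, U2OS cells carrying S1P1 and the reporter were serum-starved 48 h, then exposed overnight at 37 °C to compound (10 points, 3-fold, top 1 μM, 1% DMSO). β-Lactamase F460/F530 ratio was normalized to 1 μM S1P, and EC50 was fitted.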

[3] = * = rEC50 measured rather than EC50, read-out: Assay 5 rEC50 (relative EC50, cells marked *)

T2 sequence (P32121 whole entry): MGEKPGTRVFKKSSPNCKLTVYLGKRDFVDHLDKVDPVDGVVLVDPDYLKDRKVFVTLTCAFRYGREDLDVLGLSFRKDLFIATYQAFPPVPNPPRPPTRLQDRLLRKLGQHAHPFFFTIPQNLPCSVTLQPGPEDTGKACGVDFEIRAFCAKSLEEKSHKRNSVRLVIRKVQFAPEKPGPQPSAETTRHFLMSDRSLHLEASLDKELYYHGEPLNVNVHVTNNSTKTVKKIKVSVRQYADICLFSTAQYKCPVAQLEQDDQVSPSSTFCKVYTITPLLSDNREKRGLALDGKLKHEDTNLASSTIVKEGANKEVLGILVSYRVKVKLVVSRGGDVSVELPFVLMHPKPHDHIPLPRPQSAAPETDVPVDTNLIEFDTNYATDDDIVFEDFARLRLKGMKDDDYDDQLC
T2 sequence (Q99500 whole entry): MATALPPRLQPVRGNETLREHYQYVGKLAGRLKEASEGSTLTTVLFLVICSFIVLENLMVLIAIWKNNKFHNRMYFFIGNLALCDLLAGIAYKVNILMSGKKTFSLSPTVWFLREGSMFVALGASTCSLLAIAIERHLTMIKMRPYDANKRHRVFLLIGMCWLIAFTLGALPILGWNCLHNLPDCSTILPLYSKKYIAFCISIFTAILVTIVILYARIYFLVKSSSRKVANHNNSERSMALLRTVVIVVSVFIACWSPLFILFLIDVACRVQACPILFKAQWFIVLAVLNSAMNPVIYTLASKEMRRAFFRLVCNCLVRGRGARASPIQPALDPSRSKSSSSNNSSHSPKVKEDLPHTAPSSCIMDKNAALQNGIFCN
T4 sequence (P32121 whole entry): as the sequence (P32121 whole entry) above
T4 sequence (P21453 whole entry): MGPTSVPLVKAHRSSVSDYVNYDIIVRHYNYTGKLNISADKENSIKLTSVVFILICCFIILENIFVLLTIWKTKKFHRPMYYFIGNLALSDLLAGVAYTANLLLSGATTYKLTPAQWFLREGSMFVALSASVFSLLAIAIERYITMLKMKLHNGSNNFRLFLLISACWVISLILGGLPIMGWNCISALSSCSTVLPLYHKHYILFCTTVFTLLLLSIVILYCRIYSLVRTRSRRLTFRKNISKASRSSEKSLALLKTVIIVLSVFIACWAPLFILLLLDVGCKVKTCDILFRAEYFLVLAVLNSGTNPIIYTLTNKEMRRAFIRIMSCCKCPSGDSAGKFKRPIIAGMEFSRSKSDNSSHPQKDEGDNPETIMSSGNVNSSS
T1 sequence (Q9H228 whole entry): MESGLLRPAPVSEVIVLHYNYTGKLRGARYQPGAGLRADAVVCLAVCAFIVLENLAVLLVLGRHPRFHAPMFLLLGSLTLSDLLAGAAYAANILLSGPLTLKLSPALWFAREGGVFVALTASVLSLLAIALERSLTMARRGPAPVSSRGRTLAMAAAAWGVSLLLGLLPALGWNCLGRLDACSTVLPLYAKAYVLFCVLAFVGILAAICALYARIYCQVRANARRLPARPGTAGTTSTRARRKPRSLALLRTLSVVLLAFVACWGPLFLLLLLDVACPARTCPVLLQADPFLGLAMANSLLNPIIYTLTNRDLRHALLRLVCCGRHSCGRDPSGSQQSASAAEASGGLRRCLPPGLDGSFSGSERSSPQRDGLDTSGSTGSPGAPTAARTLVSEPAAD
T3 sequence (P21453 whole entry): as the sequence (P21453 whole entry) above

Row | SMILES | EC50 [1] | EC50 (S1P3; read-out: Assay 5 EC50) | EC50 [2] | EC50 (S1P1) | EC50 (S1P3; [3])
1 | CC(C)Oc1ccc(-c2nnc(-c3cc(Cl)c(OC[C@H](N)CO)c(Cl)c3)s2)cc1Cl [Entry 39, (2R)-2-amino-3-{[2,6-dichloro-4-(5-{3-chloro-4-[(1-methylethyl)oxy]phenyl}-1,3,4-thiadiazol-2-yl)phenyl]oxy}propan-1-ol] | 10 to 50 nM | > 10000 nM | ≤ 10 nM | 50 to 250 nM | 
2 | CC(C)Oc1ccc(-c2nnc(-c3cc(F)c(OC[C@H](N)CO)c(Cl)c3)s2)cc1Cl [Entry 40, (2R)-2-amino-3-{[2-chloro-4-(5-{3-chloro-4-[(1-methylethyl)oxy]phenyl}-1,3,4-thiadiazol-2-yl)-6-fluorophenyl]oxy}propan-1-ol] | 10 to 50 nM | > 10000 nM | ≤ 10 nM | 10 to 50 nM | 
3 | CC(C)N(C)c1cc(-c2nnc(-c3cc(F)c(OCC(N)CO)cc3Cl)s2)ccn1 (stereo not drawn) [Entry 41, 2-amino-3-{[5-chloro-2-fluoro-4-(5-{2-[methyl(1-methylethyl)amino]pyridin-4-yl}-1,3,4-thiadiazol-2-yl)phenyl]oxy}propan-1-ol] | > 10000 nM | > 10000 nM | 250 to 2800 nM | ≤ 10 nM | 
4 | CC(C)Nc1ccc(-c2nnc(-c3cc(F)c(OC[C@H](N)CO)cc3Cl)s2)cc1Cl [Entry 43, (2R)-2-amino-3-{[5-chloro-4-(5-{3-chloro-4-[(1-methylethyl)amino]phenyl}-1,3,4-thiadiazol-2-yl)-2-fluorophenyl]oxy}propan-1-ol] | 10 to 50 nM | > 10000 nM | ≤ 10 nM | 50 to 250 nM | 
5 | CC(C)Nc1ccc(-c2nnc(-c3cc(F)c(OC[C@@H](N)CO)cc3Cl)s2)cc1Cl [Entry 45, (2S)-2-amino-3-{[5-chloro-4-(5-{3-chloro-4-[(1-methylethyl)amino]phenyl}-1,3,4-thiadiazol-2-yl)-2-fluorophenyl]oxy}propan-1-ol] | 10 to 50 nM |  | ≤ 10 nM | ≤ 10 nM | > 250 nM
6 | CC(C)Nc1ccc(-c2nnc(-c3cc(F)c(OC[C@H](N)[C@@H](C)O)cc3Cl)s2)cn1 [Entry 46, (2R,3S)-3-amino-4-{[5-chloro-2-fluoro-4-(5-{6-[(1-methylethyl)amino]pyridin-3-yl}-1,3,4-thiadiazol-2-yl)phenyl]oxy}butan-2-ol] | 250 to 2800 nM | > 10000 nM | 250 to 2800 nM | 10 to 50 nM | 
7 | CC(C)Nc1ccc(-c2nnc(-c3cc(F)c(OC[C@@H](N)COP(=O)(O)O)cc3Cl)s2)cn1 [Entry 47, (2R)-2-amino-3-{[5-chloro-2-fluoro-4-(5-{6-[(1-methylethyl)amino]pyridin-3-yl}-1,3,4-thiadiazol-2-yl)phenyl]oxy}propyl dihydrogen phosphate] | ≤ 10 nM | ≤ 250 nM | ≤ 10 nM | ≤ 10 nM | 
8 | CC(C)Nc1ncc(-c2nnc(-c3cc(F)c(OC[C@H](N)[C@@H](C)O)cc3Cl)s2)cc1Cl [Entry 48, (2R,3S)-3-amino-4-{[5-chloro-4-(5-{5-chloro-6-[(1-methylethyl)amino]pyridin-3-yl}-1,3,4-thiadiazol-2-yl)-2-fluorophenyl]oxy}butan-2-ol] | 250 to 2800 nM | > 10000 nM | 10 to 50 nM | ≤ 10 nM | 
9 | N#Cc1cc(-c2nnc(-c3cc(F)c(OC[C@H](N)CO)cc3Cl)s2)ccc1OC1COC1 [Entry 49, 5-[5-(4-{[(2R)-2-amino-3-hydroxypropyl]oxy}-2-chloro-5-fluorophenyl)-1,3,4-thiadiazol-2-yl]-2-(oxetan-3-yloxy)benzonitrile] | 50 to 250 nM | > 10000 nM | ≤ 10 nM | ≤ 10 nM | 
10 | CC(C)Oc1ccc(-c2nnc(-c3cc(F)c(OC[C@H](N)[C@@H](C)OP(=O)(O)O)cc3Cl)s2)cc1C#N [Entry 50, (1R,2S)-2-amino-3-{[5-chloro-4-(5-{3-cyano-4-[(1-methylethyl)oxy]phenyl}-1,3,4-thiadiazol-2-yl)-2-fluorophenyl]oxy}-1-methylpropyl dihydrogen phosphate] | ≤ 10 nM | ≤ 250 nM | ≤ 10 nM | ≤ 10 nM | 
11 | CC(C)Oc1ccc(-c2nnc(-c3cc(F)c(OC[C@H](N)[C@@H](C)OP(=O)(O)O)cc3Cl)s2)cc1Cl [Entry 51, (1R,2S)-2-amino-3-{[5-chloro-4-(5-{3-chloro-4-[(1-methylethyl)oxy]phenyl}-1,3,4-thiadiazol-2-yl)-2-fluorophenyl]oxy}-1-methylpropyl dihydrogen phosphate] | ≤ 10 nM | ≤ 250 nM | ≤ 10 nM | ≤ 10 nM | 
12 | CC(C)Nc1ccc(-c2nnc(-c3cc(F)c(OC[C@H](N)COP(=O)(O)O)cc3Cl)s2)cn1 [Entry 52, (2S)-2-amino-3-{[5-chloro-2-fluoro-4-(5-{6-[(1-methylethyl)amino]pyridin-3-yl}-1,3,4-thiadiazol-2-yl)phenyl]oxy}propyl dihydrogen phosphate] | ≤ 10 nM |  | ≤ 10 nM | ≤ 10 nM | > 250 nM
13 | CC(C)Oc1ccc(-c2nnc(-c3cc(F)c(OC[C@H](N)[C@H](C)OP(=O)(O)O)cc3Cl)s2)cc1C#N [Entry 53, (1S,2S)-2-amino-3-{[5-chloro-4-(5-{3-cyano-4-[(1-methylethyl)oxy]phenyl}-1,3,4-thiadiazol-2-yl)-2-fluorophenyl]oxy}-1-methylpropyl dihydrogen phosphate] | ≤ 10 nM | > 10000 nM | ≤ 10 nM | ≤ 10 nM | 
14 | CC(C)Nc1ccc(-c2nnc(-c3cc(F)c(OC[C@H](N)[C@H](C)OP(=O)(O)O)cc3Cl)s2)cn1 [Entry 54, (1S,2S)-2-amino-3-{[5-chloro-2-fluoro-4-(5-{6-[(1-methylethyl)amino]pyridin-3-yl}-1,3,4-thiadiazol-2-yl)phenyl]oxy}-1-methylpropyl dihydrogen phosphate] | 10 to 50 nM | > 250 nM | ≤ 10 nM | ≤ 10 nM | 

The remaining lines, values ahead:

Row | EC50 [1] | EC50 (S1P3; read-out: Assay 5 EC50) | EC50 [2] | EC50 (S1P1) | EC50 (S1P3; [3]) | SMILES
15 | ≤ 10 nM | ≤ 250 nM | ≤ 10 nM | ≤ 10 nM |  | CC(C)Oc1ccc(-c2nnc(-c3cc(F)c(OC[C@@H](N)[C@H](C)O)cc3Cl)s2)cc1C#N [Entry 55, 5-[5-(4-{[(2R,3S)-2-amino-3-hydroxybutyl]oxy}-2-chloro-5-fluorophenyl)-1,3,4-thiadiazol-2-yl]-2-[(1-methylethyl)oxy]benzonitrile]
16 | > 10000 nM | > 10000 nM | 250 to 2800 nM | 250 to 2800 nM |  | CC(C)Nc1ccc(-c2nnc(-c3cc(F)c(OC[C@H](N)[C@H](C)O)cc3Cl)s2)cn1 [Entry 56, (2S,3S)-3-amino-4-{[5-chloro-2-fluoro-4-(5-{6-[(1-methylethyl)amino]pyridin-3-yl}-1,3,4-thiadiazol-2-yl)phenyl]oxy}butan-2-ol]
17 | 250 to 2800 nM | > 10000 nM | 50 to 250 nM | 50 to 250 nM |  | CC(C)Nc1cc(-c2nnc(-c3cc(F)c(OC[C@H](N)[C@@H](C)O)cc3Cl)s2)ccn1 [Entry 57]
18 | 250 to 2800 nM | > 10000 nM | 250 to 2800 nM | ≤ 10 nM |  | CC(C)Nc1ccc(-c2nnc(-c3cc(F)c(OC[C@@H](N)[C@H](C)O)cc3Cl)s2)cn1 [Entry 59, (2S,3R)-3-amino-4-{[5-chloro-2-fluoro-4-(5-{6-[(1-methylethyl)amino]pyridin-3-yl}-1,3,4-thiadiazol-2-yl)phenyl]oxy}butan-2-ol]
19 | 10 to 50 nM | > 10000 nM | ≤ 10 nM | 10 to 50 nM |  | Cc1cc(-c2nnc(-c3cc(F)c(OC[C@H](N)[C@@H](C)O)cc3Cl)s2)ccc1OC(C)C [Entry 60, (2R,3S)-3-amino-4-{[5-chloro-2-fluoro-4-(5-{3-methyl-4-[(1-methylethyl)oxy]phenyl}-1,3,4-thiadiazol-2-yl)phenyl]oxy}butan-2-ol]
20 | 10 to 50 nM | > 10000 nM | ≤ 10 nM | 50 to 250 nM |  | Cc1cc(-c2nnc(-c3cc(F)c(OC[C@H](N)[C@H](C)O)cc3Cl)s2)ccc1OC(C)C [Entry 61, (2S,3S)-3-amino-4-{[5-chloro-2-fluoro-4-(5-{3-methyl-4-[(1-methylethyl)oxy]phenyl}-1,3,4-thiadiazol-2-yl)phenyl]oxy}butan-2-ol]
21 | 10 to 50 nM | > 250 nM | ≤ 10 nM | 10 to 50 nM |  | Cc1cc(-c2nnc(-c3cc(F)c(OC[C@H](N)[C@H](C)O)cc3Cl)s2)cc(NC(C)C)n1 [Entry 63, (2S,3S)-3-amino-4-{[5-chloro-2-fluoro-4-(5-{2-methyl-6-[(1-methylethyl)amino]pyridin-4-yl}-1,3,4-thiadiazol-2-yl)phenyl]oxy}butan-2-ol]
